Holding throughout (test): relative viability (nuclei count vs DMSO), 5 days (fraction); higher = more cells survive
Compound in assay [1]: Cc1cnc(CNC(=O)c2c(=O)c3ccc(N4CCCN(C)CC4)nc3n3c2sc2ccccc23)cn1 [CX-5461] + O=C(CCCCCCC(=O)Nc1ccccc1)NO [Vorinostat] (partner 1 µM)
In a few lines:
(§1)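 The day after seeding in 1536-well plates, lung cancer cell lines were treated by pin tool with a single drug, or with a fixed anchor-drug dose together with five library-drug doses (not always all listed) in √10 steps. After 5 days, a combined fix-and-stain solution (final 0.05% Triton X-100, 1% formaldehyde, 1 ug/ml Hoechst) was added. Nuclei counted on 4× images gave relative viability as treated counts over vehicle counts, reported as the median of duplicate plates.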

Compound in assay [2]: O=C(Nc1cc(C(F)(F)F)cc(C(F)(F)F)c1)c1cc(Cl)ccc1O [IMD-0354] + Nc1ncn([C@H]2C[C@H](O)[C@@H](CO)O2)c(=O)n1 [Decitabine] (partner 2 µM)
In a few lines: as §1

Compound in assay [3]: O=C(Nc1cc(C(F)(F)F)cc(C(F)(F)F)c1)c1cc(Cl)ccc1O [IMD-0354] + COc1cccc2cc(-c3nc([C@H]4CC[C@H](C(=O)O)CC4)n4ncnc(N)c34)[nH]c12 [OSI-027] (partner 0.5 µM)
In a few lines: as §1

Compound in assay [4]: Cc1cnc(CNC(=O)c2c(=O)c3ccc(N4CCCN(C)CC4)nc3n3c2sc2ccccc23)cn1 [CX-5461] + CC(C)C[C@H](NC(=O)[C@H](Cc1ccccc1)NC(=O)c1cnccn1)B(O)O [Bortezomib] (partner 0.002 µM)
In a few lines: as §1

Regarding UMC-11, the relative viability in assay [1] (first compound 0.01 µM) was found to be 0.338; in assay [1] (first compound 0.03162 µM), 0.35; in assay [1] (first compound 0.1 µM), 0.384; in assay [1] (first compound 0.3162 µM), 0.398; in assay [1] (first compound 1 µM) it was 0.202; in assay [2] (first compound 0.04 µM), 0.64. In addition, the relative viability in assay [2] (first compound 0.1265 µM) amounted to 0.646; in assay [2] (first compound 0.4 µM), 0.522; in assay [2] (first compound 1.265 µM) it was 0.174; in assay [2] (first compound 4 µM), 0.176; in assay [3] (first compound 0.04 µM) it was 0.57; in assay [3] (first compound 0.1265 µM) it was 0.469. In addition, the relative viability in assay [3] (first compound 0.4 µM) was 0.3; in assay [3] (first compound 1.265 µM) it was 0.215; in assay [3] (first compound 4 µM), 0.205; in assay [4] (first compound 0.01 µM) it was 1.01; in assay [4] (first compound 0.03162 µM) it was 0.707; in assay [4] (first compound 0.1 µM), 0.514. For the same cell line, the relative viability in assay [4] (first compound 0.3162 µM) worked out at 0.797; in assay [4] (first compound 1 µM), 0.198.

These data come from the supplement of paper PMC10307832.
